Results reported in PubChem BioAssay (NCI).
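Grown in 96-well plates, cells were treated for 48 hours with each compound at five concentrations. Insufficient inhibition: endpoint recorded as highest concentration tested. At the GI50, growth is halved. TGI is the concentration that stops growth completely.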

Assays:
Assay in all cases: NCI-60 cell line screen, 48 h
CCRF-CEM leukemia = system: CCRF-CEM leukemia
MCF7 breast = system: MCF7 breast
T-47D breast = system: T-47D breast
SK-MEL-5 melanoma = system: SK-MEL-5 melanoma
NCI/ADR-RES ovarian = system: NCI/ADR-RES ovarian
SF-295 CNS = system: SF-295 CNS
SNB-19 CNS = system: SNB-19 CNS
NCI-H226 lung = system: NCI-H226 lung
CAKI-1 renal = system: CAKI-1 renal
SN12C renal = system: SN12C renal

Row | SMILES | TGI (CCRF-CEM leukemia) [µM] | TGI (MCF7 breast) [µM] | TGI (T-47D breast) [µM] | TGI (SK-MEL-5 melanoma) [µM] | TGI (NCI/ADR-RES ovarian) [µM] | TGI (SF-295 CNS) [µM] | TGI (SNB-19 CNS) [µM] | TGI (NCI-H226 lung) [µM] | TGI (CAKI-1 renal) [µM] | TGI (SN12C renal) [µM] | GI50 (CCRF-CEM leukemia) [µM] | GI50 (SK-MEL-5 melanoma) [µM] | GI50 (SF-295 CNS) [µM] | GI50 (SNB-19 CNS) [µM] | GI50 (NCI-H226 lung) [µM] | GI50 (CAKI-1 renal) [µM] | GI50 (SN12C renal) [µM] | GI50 (MCF7 breast) [µM] | GI50 (T-47D breast) [µM] | GI50 (NCI/ADR-RES ovarian) [µM]
1 | COc1cc(OC)c(OC)cc1/C=C/c1ccccn1 | > 10 | > 10 | > 10 | > 10 | > 10 | > 10 | > 10 | > 10 | > 10 | > 10 | – | – | – | – | – | – | – | – | – | –
2 | CC[O-].CC[O-].[O-]c1ccccc1C=NC12CC3CC(CC(C3)C1)C2.[O-]c1ccccc1C=NC12CC3CC(CC(C3)C1)C2.[Ti+4] | > 100 | – | – | > 100 | – | > 100 | > 100 | > 100 | > 100 | > 100 | 11 | 19.9 | > 100 | > 100 | > 100 | > 100 | 86.4 | – | – | –
3 | Cc1cccc(-c2nc(=S)[nH][nH]2)c1 | > 100 | – | – | > 100 | – | > 100 | > 100 | > 100 | > 100 | > 100 | – | – | – | – | – | – | – | – | – | –
4 | COCCn1c(Nc2ccc(C(=O)NO)cc2)nc2ccccc21 | > 100 | > 100 | > 100 | 12.9 | 4.84 | 16.3 | 30 | 36.9 | 6.24 | 47.4 | 3.52 | 3.55 | 2.93 | 10.7 | 13.7 | 1.37 | 7.28 | 5.45 | 3.03 | 1.3
5 | CC(C)(Sc1cc(C(C)(C)C)c(O)c(C(C)(C)C)c1)Sc1cc(C(C)(C)C)c(O)c(C(C)(C)C)c1 | > 100 | > 100 | > 100 | > 100 | > 100 | > 100 | > 100 | – | > 100 | > 100 | – | – | – | – | – | – | – | – | – | –
6 | Nc1nc(N)c2cc(S(=O)(=O)c3cccc(C(F)(F)F)c3)ccc2n1 | > 100 | > 100 | – | > 100 | > 100 | 97.5 | > 100 | > 100 | > 100 | > 100 | 3.41 | 2.98 | 2.57 | 5.44 | 21.5 | > 100 | 6.34 | 5.7 | – | 7.79
7 | O=c1c2ccccc2c(=O)n2n1-c1cccc(c1)CSSCc1cccc-2c1 | > 100 | – | – | > 100 | – | > 100 | > 100 | > 100 | > 100 | > 100 | > 100 | > 100 | – | > 100 | > 100 | > 100 | > 100 | – | – | –
8 | CC(C)N1CCOC(c2ccc(O)c(O)c2)C1 (stereo unspecified) | > 100 | – | – | > 100 | – | > 100 | > 100 | – | > 100 | > 100 | – | – | – | – | – | – | – | – | – | –
9 | O=c1c(-c2cccc3ccccc23)c(-c2cccc3ccccc23)c1=O | > 50 | – | – | 40 | – | 2.82 | 61 | 6.51 | > 100 | > 100 | – | – | – | – | – | – | – | – | – | –
10 | CS(=O)(=O)N(CCC#N)c1ccc(/C=C2\N=C(c3ccccc3Cl)OC2=O)cc1 | > 100 | – | – | > 100 | – | > 100 | > 100 | > 100 | > 100 | > 100 | – | – | – | – | – | – | – | – | – | –
11 | CN(C)C(=C1C(Br)=C(Br)C(Br)=C1Br)N(C)C | 95.3 | – | – | > 100 | – | > 100 | – | – | > 100 | > 100 | – | – | – | – | – | – | – | – | – | –
12 | CC(NC(=O)c1ccc(Cl)c(Cl)c1)c1ccc(-c2ccccc2)cc1 (stereo unspecified) | – | > 100 | – | > 100 | > 100 | > 100 | 46.7 | 78.7 | > 100 | > 100 | – | – | – | – | – | – | – | – | – | –
13 | O=C(O)c1c2c(c(O)c3c1CN(C1CCCCC1)CO3)OCN(C1CCCCC1)C2 | 55.7 | 39.2 | > 100 | > 100 | > 100 | > 100 | > 100 | – | > 100 | 72.9 | – | – | – | – | – | – | – | – | – | –
14 | O=C1CN=C(c2ccccc2)c2ccncc2N1 | > 100 | – | – | > 100 | – | > 100 | > 100 | > 100 | > 100 | > 100 | – | – | – | – | – | – | – | – | – | –
15 | O=C(c1ccccc1)[C@H]1Nc2ccc(Cl)cc2[C@H]2c3ccccc3O[C@H]21 | – | – | – | 27.5 | – | 28.9 | 29.3 | – | 29.1 | 29.1 | – | – | – | – | – | – | – | – | – | –
16 | O=c1[nH]c(=O)n(Cc2ccc(C34CC5CC(CC(C5)C3)C4)c(O)c2)cc1F | – | 30.9 | 44.4 | 23.3 | 31.4 | 27.2 | 34 | 32.6 | 37.5 | 26.8 | – | 11.2 | 9.62 | 15.6 | 16.7 | 17.7 | 13.5 | 11.9 | 13.6 | 13
17 | Clc1ccc2c(NC3CCC(NC4CCCCC4)CC3)ccnc2c1 (stereo unspecified) | – | 11 | 17.7 | 3.2 | 30.4 | 5.19 | 89.8 | 46.5 | 6.63 | 68.3 | – | 1.77 | 1.92 | 21.3 | 12.8 | 1.81 | 14.7 | 2.49 | 3.42 | 8.48
18 | Cc1ccc(/C=C/C(=O)c2ccc(F)cc2)s1 | – | 16.9 | 23.5 | 24.9 | 17.6 | 18.8 | 24.4 | 24 | 3.72 | 19.8 | – | 12.2 | 5.38 | 11.3 | 10.4 | 1.78 | 6.47 | 3.66 | 4.71 | 3.68
19 | CN(N=O)C(=O)NC(CCCCNC(=O)OCc1ccccc1)C(=O)OCc1ccccc1 (stereo unspecified) | 57.1 | – | – | 45.4 | – | > 100 | > 100 | > 100 | 52.8 | 31.9 | – | – | – | – | – | – | – | – | – | –
